How the values were obtained:
Assay type in all cases: biochemical
[1] = target: Cherry salmon DNA polymerase δ (Oncorhynchus masou, UniProt Z9UCE0HTX2); assay: DNA polymerase assay, fish pol δ
[2] = target: T1, Human DNA polymerase λ (Homo sapiens, UniProt Q9UGP5); assay: DNA polymerase assay, human pol λ
T1 construct: His tag; made in house; host or cells: E. coli (from the title of the cited method)
T1 sequence (Q9UGP5 1-575): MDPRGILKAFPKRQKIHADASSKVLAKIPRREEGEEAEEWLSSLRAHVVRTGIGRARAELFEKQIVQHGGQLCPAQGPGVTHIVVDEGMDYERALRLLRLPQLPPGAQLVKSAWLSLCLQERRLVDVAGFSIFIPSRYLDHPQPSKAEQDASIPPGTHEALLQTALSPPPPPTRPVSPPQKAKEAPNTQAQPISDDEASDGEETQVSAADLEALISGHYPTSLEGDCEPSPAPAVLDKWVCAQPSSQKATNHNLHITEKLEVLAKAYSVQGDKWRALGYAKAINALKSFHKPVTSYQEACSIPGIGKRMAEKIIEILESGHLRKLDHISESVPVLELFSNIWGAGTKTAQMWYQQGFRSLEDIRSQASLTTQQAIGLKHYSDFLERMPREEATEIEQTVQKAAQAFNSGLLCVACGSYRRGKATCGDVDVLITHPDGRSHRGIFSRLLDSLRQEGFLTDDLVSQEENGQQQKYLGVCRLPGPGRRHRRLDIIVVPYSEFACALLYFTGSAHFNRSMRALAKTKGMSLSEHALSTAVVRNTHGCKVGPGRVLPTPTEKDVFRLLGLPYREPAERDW
From the text: (§1) Pol α was purified from calf thymus by immuno-affinity column chromatography as described by Tamai et al.. Recombinant rat pol β was purified from E. coli JMpβ5 as described by Date et al.. The human pol γ catalytic gene was cloned into pFastBac. Histidine-tagged enzyme was expressed using the BAC-TO-BAC HT Baculovirus Expression System according to the supplier's manual (LIFE TECHNOLOGIES, MD, USA) and purified using ProBoundresin (Invitrogen Japan, Tokyo, Japan). Human pols δ and ε were purified by the nuclear fractionation of human peripheral blood cancer cells (Molt-4) using the second subunit of pols δ and ε-conjugated affinity column chromatography, respectively. Recombinant human pols η and ι tagged with His6 at their C-terminal were expressed in SF9 insect cells using the baculovirus expression system, and were purified as described previously. A truncated form of pol κ (i.e., hDINB1DC) with 6 x His-tags attached at the C-terminal was overproduced using the BAC-to-BAC Baculovirus Expression System kit (GIBCO BRL, MD, USA) and purified as described previously. […]
(§2) For pols, poly(dA)/oligo(dT)12-18 (A/T = 2/1) and dTTP were used as the DNA template-primer and nucleotide (i.e., dNTP) substrate, respectively. […] Activity without the inhibitor was considered 100%, and the remaining activity at each concentration of the inhibitor was determined relative to this value. […]

[3] = target: T2, Taq DNA polymerase (Thermus aquaticus, UniProt P19821); assay: DNA polymerase assay, Taq pol; details: incubated at 74 °C
T2 construct: purchased Takara (Kyoto, Japan)
From the text: as §1, §2

[4] = target: mammalian pols; assay: DNA polymerase assays, all mammalian pols tested; details: all mammalian pols tested (α, β, γ, δ, ε, η, ι, κ, λ); read-out: range of IC50 values for mammalian pols
From the text: as §1, §2

[5] = target: T3, Human DNA polymerase η (Homo sapiens, UniProt Q9Y253); assay: DNA polymerase assay, human pol η
T3 construct: His6 (C); made in house; host or cells: SF9 insect cells (baculovirus)
T3 sequence (Q9Y253 1-713): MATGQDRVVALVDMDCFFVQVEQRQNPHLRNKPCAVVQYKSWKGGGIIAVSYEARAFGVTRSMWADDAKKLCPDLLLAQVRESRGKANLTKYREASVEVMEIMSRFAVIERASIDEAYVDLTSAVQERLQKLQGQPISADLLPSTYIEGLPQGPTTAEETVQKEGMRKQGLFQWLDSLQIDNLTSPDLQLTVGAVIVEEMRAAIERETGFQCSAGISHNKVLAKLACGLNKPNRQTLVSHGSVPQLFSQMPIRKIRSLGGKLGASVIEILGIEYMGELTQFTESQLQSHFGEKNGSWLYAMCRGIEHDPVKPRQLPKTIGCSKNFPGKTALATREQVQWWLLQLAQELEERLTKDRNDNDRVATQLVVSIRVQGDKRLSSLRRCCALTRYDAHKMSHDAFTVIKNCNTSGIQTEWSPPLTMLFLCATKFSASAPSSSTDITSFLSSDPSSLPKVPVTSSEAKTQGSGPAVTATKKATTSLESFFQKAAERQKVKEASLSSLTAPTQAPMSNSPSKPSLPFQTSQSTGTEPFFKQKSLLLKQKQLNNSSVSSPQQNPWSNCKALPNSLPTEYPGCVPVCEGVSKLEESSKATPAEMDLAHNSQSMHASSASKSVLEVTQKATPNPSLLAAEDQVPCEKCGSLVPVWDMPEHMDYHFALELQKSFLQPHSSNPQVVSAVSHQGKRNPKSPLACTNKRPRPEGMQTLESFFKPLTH
From the text: as §1, §2

Cherry salmon DNA polymerase δ, sequence (Z9UCE0HTX2 1-856): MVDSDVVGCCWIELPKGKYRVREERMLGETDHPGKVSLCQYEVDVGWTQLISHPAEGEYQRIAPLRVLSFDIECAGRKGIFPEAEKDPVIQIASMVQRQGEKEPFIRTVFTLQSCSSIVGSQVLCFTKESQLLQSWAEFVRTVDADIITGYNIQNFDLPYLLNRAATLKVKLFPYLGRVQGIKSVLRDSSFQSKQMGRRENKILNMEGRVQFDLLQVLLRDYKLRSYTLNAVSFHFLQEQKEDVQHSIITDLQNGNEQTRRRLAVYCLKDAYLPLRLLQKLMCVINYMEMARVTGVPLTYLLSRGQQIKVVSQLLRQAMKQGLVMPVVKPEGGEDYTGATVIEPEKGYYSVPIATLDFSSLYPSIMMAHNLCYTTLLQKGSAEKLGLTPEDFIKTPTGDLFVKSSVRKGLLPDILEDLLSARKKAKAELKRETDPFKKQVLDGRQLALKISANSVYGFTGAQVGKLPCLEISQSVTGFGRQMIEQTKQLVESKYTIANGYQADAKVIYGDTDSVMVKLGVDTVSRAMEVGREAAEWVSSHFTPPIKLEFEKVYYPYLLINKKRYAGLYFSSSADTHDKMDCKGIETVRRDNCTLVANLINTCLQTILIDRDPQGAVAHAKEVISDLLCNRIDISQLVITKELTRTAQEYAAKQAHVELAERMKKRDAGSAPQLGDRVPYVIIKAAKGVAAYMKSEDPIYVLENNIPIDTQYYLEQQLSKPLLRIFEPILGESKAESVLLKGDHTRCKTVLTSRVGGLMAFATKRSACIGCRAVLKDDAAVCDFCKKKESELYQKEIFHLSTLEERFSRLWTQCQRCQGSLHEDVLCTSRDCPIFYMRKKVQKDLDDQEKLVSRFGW
T2 sequence (P19821 whole entry): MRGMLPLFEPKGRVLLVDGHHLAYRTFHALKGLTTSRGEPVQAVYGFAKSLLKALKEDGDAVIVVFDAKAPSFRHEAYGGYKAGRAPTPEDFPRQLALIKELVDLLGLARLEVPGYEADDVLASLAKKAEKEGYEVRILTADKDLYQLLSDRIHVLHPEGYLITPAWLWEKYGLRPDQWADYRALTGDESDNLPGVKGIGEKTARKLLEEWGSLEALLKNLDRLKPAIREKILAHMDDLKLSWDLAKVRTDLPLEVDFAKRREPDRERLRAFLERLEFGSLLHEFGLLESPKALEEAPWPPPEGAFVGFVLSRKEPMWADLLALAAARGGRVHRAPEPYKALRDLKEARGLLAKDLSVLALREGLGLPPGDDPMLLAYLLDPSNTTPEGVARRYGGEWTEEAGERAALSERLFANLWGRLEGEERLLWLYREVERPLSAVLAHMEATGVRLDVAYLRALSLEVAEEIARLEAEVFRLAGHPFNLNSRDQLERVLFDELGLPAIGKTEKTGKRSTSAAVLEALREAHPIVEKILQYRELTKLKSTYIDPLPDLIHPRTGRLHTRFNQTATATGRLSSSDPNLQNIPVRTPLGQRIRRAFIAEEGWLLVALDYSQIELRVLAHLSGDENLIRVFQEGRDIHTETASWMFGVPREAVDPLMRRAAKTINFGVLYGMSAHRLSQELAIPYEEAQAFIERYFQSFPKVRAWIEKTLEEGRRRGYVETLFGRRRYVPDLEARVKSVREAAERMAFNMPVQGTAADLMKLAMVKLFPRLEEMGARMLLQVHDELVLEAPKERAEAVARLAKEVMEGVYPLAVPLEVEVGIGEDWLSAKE

## CC1=CC[C@H]2C(C)(C)CCC[C@]2(C)[C@H]1CCCCCCCCCCCCCCCCC(=O)O (relative stereo) [compound 11, (1S*,4aS*,8aS*)-17-(1,4,4a,5,6,7,8,8a-octahydro-2,5,5,8a-tetramethylnaphthalen-1-yl)heptadecanoic acid]
[1]
  IC50: 4.3 ± 0.22 µM
[2]
  IC50: 4.67 ± 0.23 µM
[2]; with respect to both the DNA template-primer and the dNTP substrate
  Kinetic mode of inhibition: competitive
[3]
  IC50: > 200 µM
[4]
  IC50: 3.22 to 8.76 µM
[5]
  IC50: 7.45 ± 0.37 µM
